Source: ChEMBL document CHEMBL5634191, “Vinylpyridine as a Tunable Covalent Warhead Targeting C797 in EGFR” (ACS Med Chem Lett, 2024)

Assay: Lipophilicity, log D of the compound at pH 7.4
Assay type: physicochemical
Conditions: buffer

C=Cc1ccnc(Oc2cc3c(Nc4cccc(Cl)c4F)ncnc3cc2OC)c1
logD: 4.6

COc1cc2ncnc(Nc3ccc(F)c(Cl)c3)c2cc1OCCCN1CCOCC1 [GEFITINIB]
logD: 3.8

C=C(C)c1cc(Oc2cc3c(Nc4cccc(Cl)c4F)ncnc3cc2OC)ccn1
logD: 4.6

COc1cc2ncnc(Nc3cccc(Cl)c3F)c2cc1Oc1ccnc(/C=C/CN2CCOCC2)c1
logD: 3.8

C=Cc1cccc(Oc2cc3c(Nc4cccc(Cl)c4F)ncnc3cc2OC)n1
logD: 4.6

CN(C)C/C=C/C(=O)Nc1cc2c(Nc3ccc(F)c(Cl)c3)ncnc2cc1O[C@H]1CCOC1 [AFATINIB]
logD: 3.6

C=CC(=O)N1CCC(Oc2cc3c(Nc4ccc(Cl)c(Cl)c4F)ncnc3cc2OC)CC1 [POZIOTINIB]
logD: 4.3

COC/C=C/c1cc(Oc2cc3c(Nc4cccc(Cl)c4F)ncnc3cc2OC)ccn1
logD: 4.2
